Measurements as given in PubChem BioAssay AID2060889 (Molecular Pharmacology Branch, DTP, NCI, 2025).

Test system: LG0567-F671-PDC complex spheroids viability
Test: Anticancer human tumor LG0567-F671-PDC patient-derived lung adenocarcinoma cell line growth inhibition [RAS]
Details: for IC50: curve of first compound; for viability, T/C: stronger effect = lower value
Description: RAS pathway inhibitors in Combinations in Complex Spheroids
A high-throughput screen of multi-cell type tumor spheroids was designed to identify active combinations of RAS pathway inhibitors and targeted small molecules. Complex spheroids include a stromal component modeled by human endothelial cells (HUVEC) and fibroblasts modeled by human mesenchymal stem cells (MSCs). The concentration ranges selected for each drug and investigational agent were based upon clinically achievable concentrations if the clinical Cmax of the agent was known.
Compounds. The drugs and investigational agents: abemaciclib (NSC768073), cobimetinib (NSC768068), divarasib (GDC6063, NSC841802), docetaxel (NSC628503), GDC-1971 (RLY-1971, NSC841576), gemcitabine (NSC613327), inavolisib (NSC800729), ipatasertib (NSC767898), KB-0742 (NSC834161), MRTX-1133 (NSC836407), osimertinib (NSC779217), RMC-4630 (NSC839698), RMC-6236 (NSC851965), RMC-6291 (NSC852671), Ro-3306 (NSC812927), sapanisertib (NSC764658), SN-38 (NSC673596), staurosporine (NSC755774), SY5609 (NSC837396), and tovorafenib (DAY101, NSC766906), were obtained from the National Cancer Institute (NCI) Developmental Therapeutics Program Chemical Repository. The FDA-approved anticancer drug set is available from the NCI Developmental Therapeutics Program. […] The stock solutions were prepared in dimethyl sulfoxide (DMSO, Sigma-Aldrich, St. Louis, MO, cat. D2650) at 800-fold the tested concentration and stored at -70 degrees C prior to their use. All drugs and investigational agents were tested over a range starting from a high concentration at or near the clinical Cmax and decreasing in half-log increments. If the clinical Cmax for an agent had not been determined, the highest concentration tested was 10 microM.
Cell Culture. All cells were maintained in an incubator at 37 degrees C and 5% CO2 with 95% humidity. The PDC lines were cultured according to standard operating procedures established by the NCI PDMR. All PDCs were thawed and cultured in Matrigel-coated flasks prepared with a working solution of 1X Ham's F-12 nutrient mix, without supplementation (Invitrogen, Waltham, MA, cat. 11765054), 100 U/mL penicillin-streptomycin (Invitrogen, cat. 15140122), and 2.5% Matrigel (Corning Inc., Corning, NY, cat. 354248) for the first three passages. The 362531-283-R-J2-PDC and 782815-120-R-J1-PDC lines were cultured in 6C/Colon 1B media, which includes advanced DMEM/F-12 (Thermo Fisher Scientific, cat. 12634028), 10 mM HEPES (Thermo Fisher Scientific, cat. 15630080), 1X GlutaMAX supplement (Thermo Fisher Scientific, cat. 35050061), 0.1 mg/mL primocin (InvivoGen, San Diego, CA, cat. ant-pm-2), 10% defined fetal bovine serum, heat inactivated (HyClone Laboratories Inc., Logan, UT, cat. SH30070.03HI), 50% L-WRN conditioned media (ATCC, cat. CRL-3276), 1.25 mM N-Acetyl-L-cysteine (Sigma-Aldrich, cat. A9165), 10 mM nicotinamide (Sigma-Aldrich, cat. N0636), 1X B-27 supplement (Thermo Fisher Scientific, cat. 17504044), 1X N-2 supplement (Thermo Fisher Scientific, cat. 17502048), 50 ng/mL human EGF (Thermo Fisher Scientific, cat. PHG0311), and 10 microM Y-27632 dihydrochloride (Tocris Bioscience, cat. 1254). The K12877-001-R-J1-PDC line was cultured in 6I media, which includes all 6C/Colon 1B media plus 10 ng/mL human FGF-10 (PeproTech, cat. 100-26), 1 ng/mL human FGF-2 (PeproTech, cat. 100-18B), 1 µM prostaglandin E2 (Tocris Bioscience, cat. 2296), […] hydrocortisone (Sigma-Aldrich, cat. H4001), and […] bovine insulin (Sigma-Aldrich, cat. I6634). The K86415-001-R-J1-PDC line was cultured in 6D media, which includes all 6C/Colon 1B media components minus the L-WRN conditioned media. The 485176-168-R4-J1-PDC was cultured in PANC media, which includes all 6C/Colon 1B media plus 100 ng/mL human FGF-10 (PeproTech, cat. 100-26), 500 nM SB-431542 (Selleckchem, cat. S1067), and 10 nM gastrin (Tocris Bioscience, cat. 3006). […]
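Also: spheroids exposed to compound for seven days before readout.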
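For IC50 in this document: luminescence signal used as a proxy for viable cells.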

- IC50 (second compound 0.0316 µM): 19.6 nM
- IC50 (second compound 0.1 µM): 17.8 nM
- IC50 (second compound 0.316 µM): 1.32 nM
- IC50 (second compound 1 µM): < 0.316 nM
- IC50 (second compound 3.16 µM): < 0.316 nM
- IC50 (second compound 10 µM): < 0.316 nM
Compound: CC(C)n1nc(-c2ccc3oc(N)nc3c2)c2c(N)ncnc21 + C#Cc1c(F)ccc2cc(O)cc(-c3ncc4c(N5CC6CCC(C5)N6)nc(OCC56CCCN5CC(F)C6)nc4c3F)c12
- viability, T/C (second compound 0.0316 µM, first compound 0.000316 µM): 90.7%
- viability, T/C (second compound 0.0316 µM, first compound 0.001 µM): 77.8%
- viability, T/C (second compound 0.0316 µM, first compound 0.00316 µM): 83.4%
- viability, T/C (second compound 0.0316 µM, first compound 0.01 µM): 58.3%
- viability, T/C (second compound 0.0316 µM, first compound 0.0316 µM): 44.3%
- viability, T/C (second compound 0.0316 µM, first compound 0.1 µM): 34.1%
- viability, T/C (second compound 0.1 µM, first compound 0.000316 µM): 73.3%
- viability, T/C (second compound 0.1 µM, first compound 0.001 µM): 73.5%
- viability, T/C (second compound 0.1 µM, first compound 0.00316 µM): 61.1%
- viability, T/C (second compound 0.1 µM, first compound 0.01 µM): 58.2%
- viability, T/C (second compound 0.1 µM, first compound 0.0316 µM): 43.2%
- viability, T/C (second compound 0.1 µM, first compound 0.1 µM): 33%
- viability, T/C (second compound 0.316 µM, first compound 0.000316 µM): 52.9%
- viability, T/C (second compound 0.316 µM, first compound 0.001 µM): 48.9%
- viability, T/C (second compound 0.316 µM, first compound 0.00316 µM): 49.1%
- viability, T/C (second compound 0.316 µM, first compound 0.01 µM): 40.8%
- viability, T/C (second compound 0.316 µM, first compound 0.0316 µM): 34.2%
- viability, T/C (second compound 0.316 µM, first compound 0.1 µM): 28.5%
- viability, T/C (second compound 1 µM, first compound 0.000316 µM): 36.7%
- viability, T/C (second compound 1 µM, first compound 0.001 µM): 36.2%
- viability, T/C (second compound 1 µM, first compound 0.00316 µM): 30.8%
- viability, T/C (second compound 1 µM, first compound 0.01 µM): 24.9%
- viability, T/C (second compound 1 µM, first compound 0.0316 µM): 22.3%
- viability, T/C (second compound 1 µM, first compound 0.1 µM): 18.5%
- viability, T/C (second compound 3.16 µM, first compound 0.000316 µM): 21.4%
- viability, T/C (second compound 3.16 µM, first compound 0.001 µM): 19.9%
- viability, T/C (second compound 3.16 µM, first compound 0.00316 µM): 20.1%
- viability, T/C (second compound 3.16 µM, first compound 0.01 µM): 15.6%
- viability, T/C (second compound 3.16 µM, first compound 0.0316 µM): 13.6%
- viability, T/C (second compound 3.16 µM, first compound 0.1 µM): 9.08%
- viability, T/C (second compound 10 µM, first compound 0.000316 µM): 11.7%
- viability, T/C (second compound 10 µM, first compound 0.001 µM): 10.7%
- viability, T/C (second compound 10 µM, first compound 0.00316 µM): 8.74%
- viability, T/C (second compound 10 µM, first compound 0.01 µM): 9.19%
- viability, T/C (second compound 10 µM, first compound 0.0316 µM): 6.42%
- viability, T/C (second compound 10 µM, first compound 0.1 µM): 5.01%
